The values that follow are results of earlier work, collected in PMC9301952 (ACS Omega, 2022).

In the data set the test system is mouse. The settings on record: behavioral assay used to predict psychedelic drug activity.

On to `CNCCc1c[nH]c2cccc(OP(=O)(O)O)c12` [baeocystin, 4-phosphoryloxy-N-methyltryptamine], for which the “activity in the mouse head twitch assay” value is on record as “neither compound is active”. In the case of `CNCCc1c[nH]c2cccc(O)c12` [norpsilocin, 4-hydroxy-N-methyltryptamine], the “activity in the mouse head twitch assay” value is reported as “neither compound is active”.
